In the supplement of paper PMC13380429:

Experiments:
Settings in all cases: 72 h
Caco-2 [1] = experiment: cell viability relative to DMSO; higher = less toxic
Calu-3 [2] = experiment: as above
HepG2 [3] = experiment: as above
U2OS [4] = experiment: as above
Vero E6 [5] = experiment: as above
Caco-2 [6] = experiment: relative viability EC50 (midpoint between 100% and the lowest measured viability); higher = less toxic
Calu-3 [7] = experiment: as above
HepG2 [8] = experiment: as above
U2OS [9] = experiment: as above
Vero E6 [10] = experiment: as above
Caco-2 [11] = experiment: drug sensitivity score (DSS) for viability; higher = more toxic; extreme values may be limits of the assay
Calu-3 [12] = experiment: as above
HepG2 [13] = experiment: as above
U2OS [14] = experiment: as above
Vero E6 [15] = experiment: as above

CC(C)COC(=O)c1ccc(N)cc1 [isobutamben]
cell viability (Caco-2 [1]; 1 nM): 100%
cell viability (Caco-2 [1]; 10 nM): 95.9%
cell viability (Caco-2 [1]; 100 nM): 102%
cell viability (Caco-2 [1]; 1000 nM): 93.1%
cell viability (Caco-2 [1]; 10000 nM): 98.8%
cell viability (Calu-3 [2]; 1 nM): 87.8%
cell viability (Calu-3 [2]; 10 nM): 100%
cell viability (Calu-3 [2]; 100 nM): 103%
cell viability (Calu-3 [2]; 1000 nM): 111%
cell viability (Calu-3 [2]; 10000 nM): 102%
cell viability (HepG2 [3]; 1 nM): 98.7%
cell viability (HepG2 [3]; 10 nM): 103%
cell viability (HepG2 [3]; 100 nM): 94.9%
cell viability (HepG2 [3]; 1000 nM): 88%
cell viability (HepG2 [3]; 10000 nM): 90.2%
cell viability (U2OS [4]; 1 nM): 104%
cell viability (U2OS [4]; 10 nM): 96.4%
cell viability (U2OS [4]; 100 nM): 102%
cell viability (U2OS [4]; 1000 nM): 94.1%
cell viability (U2OS [4]; 10000 nM): 99.9%
cell viability (Vero E6 [5]; 1 nM): 102%
cell viability (Vero E6 [5]; 10 nM): 106%
cell viability (Vero E6 [5]; 100 nM): 97.9%
cell viability (Vero E6 [5]; 1000 nM): 98.6%
cell viability (Vero E6 [5]; 10000 nM): 96.2%
relative viability EC50 (Caco-2 [6]): > 10 µM
relative viability EC50 (Calu-3 [7]): > 10 µM
relative viability EC50 (HepG2 [8]): > 10 µM
relative viability EC50 (U2OS [9]): > 10 µM
relative viability EC50 (Vero E6 [10]): > 10 µM
drug sensitivity score (Caco-2 [11]): 0
drug sensitivity score (Calu-3 [12]): 0
drug sensitivity score (HepG2 [13]): 0.7
drug sensitivity score (U2OS [14]): 0
drug sensitivity score (Vero E6 [15]): 0

O=C(O)CNC(=O)c1c(O)c2ccccc2n(Cc2ccccc2)c1=O [IOX2]
cell viability (Caco-2 [1]; 1 nM): 95.4%
cell viability (Caco-2 [1]; 10 nM): 97.1%
cell viability (Caco-2 [1]; 100 nM): 92%
cell viability (Caco-2 [1]; 1000 nM): 102%
cell viability (Caco-2 [1]; 10000 nM): 93.2%
cell viability (Calu-3 [2]; 1 nM): 87%
cell viability (Calu-3 [2]; 10 nM): 88%
cell viability (Calu-3 [2]; 100 nM): 85.8%
cell viability (Calu-3 [2]; 1000 nM): 96%
cell viability (Calu-3 [2]; 10000 nM): 87.4%
cell viability (HepG2 [3]; 1 nM): 108%
cell viability (HepG2 [3]; 10 nM): 106%
cell viability (HepG2 [3]; 100 nM): 108%
cell viability (HepG2 [3]; 1000 nM): 93.9%
cell viability (HepG2 [3]; 10000 nM): 106%
cell viability (U2OS [4]; 1 nM): 96.2%
cell viability (U2OS [4]; 10 nM): 102%
cell viability (U2OS [4]; 100 nM): 94.8%
cell viability (U2OS [4]; 1000 nM): 98.5%
cell viability (U2OS [4]; 10000 nM): 95.6%
cell viability (Vero E6 [5]; 1 nM): 104%
cell viability (Vero E6 [5]; 10 nM): 99.7%
cell viability (Vero E6 [5]; 100 nM): 102%
cell viability (Vero E6 [5]; 1000 nM): 106%
cell viability (Vero E6 [5]; 10000 nM): 98.4%
relative viability EC50 (Caco-2 [6]): > 10 µM
relative viability EC50 (Calu-3 [7]): > 10 µM
relative viability EC50 (HepG2 [8]): > 10 µM
relative viability EC50 (U2OS [9]): > 10 µM
relative viability EC50 (Vero E6 [10]): > 10 µM
drug sensitivity score (Caco-2 [11]): 0
drug sensitivity score (Calu-3 [12]): 0
drug sensitivity score (HepG2 [13]): 0
drug sensitivity score (U2OS [14]): 0
drug sensitivity score (Vero E6 [15]): 0

CCCn1c(=O)c2[nH]c(-c3cnn(Cc4cccc(C(F)(F)F)c4)c3)nc2n(CC)c1=O [GS-6201]
cell viability (Caco-2 [1]; 1 nM): 98.5%
cell viability (Caco-2 [1]; 10 nM): 104%
cell viability (Caco-2 [1]; 100 nM): 105%
cell viability (Caco-2 [1]; 1000 nM): 108%
cell viability (Caco-2 [1]; 10000 nM): 100%
cell viability (Calu-3 [2]; 1 nM): 103%
cell viability (Calu-3 [2]; 10 nM): 109%
cell viability (Calu-3 [2]; 100 nM): 96.3%
cell viability (Calu-3 [2]; 1000 nM): 96.1%
cell viability (Calu-3 [2]; 10000 nM): 97.4%
cell viability (HepG2 [3]; 1 nM): 106%
cell viability (HepG2 [3]; 10 nM): 91.6%
cell viability (HepG2 [3]; 100 nM): 104%
cell viability (HepG2 [3]; 1000 nM): 94.2%
cell viability (HepG2 [3]; 10000 nM): 96.8%
cell viability (U2OS [4]; 1 nM): 96.9%
cell viability (U2OS [4]; 10 nM): 101%
cell viability (U2OS [4]; 100 nM): 96.3%
cell viability (U2OS [4]; 1000 nM): 105%
cell viability (U2OS [4]; 10000 nM): 100%
cell viability (Vero E6 [5]; 1 nM): 98.5%
cell viability (Vero E6 [5]; 10 nM): 96.1%
cell viability (Vero E6 [5]; 100 nM): 96.5%
cell viability (Vero E6 [5]; 1000 nM): 97.8%
cell viability (Vero E6 [5]; 10000 nM): 104%
relative viability EC50 (Caco-2 [6]): > 10 µM
relative viability EC50 (Calu-3 [7]): > 10 µM
relative viability EC50 (HepG2 [8]): > 10 µM
relative viability EC50 (U2OS [9]): > 10 µM
relative viability EC50 (Vero E6 [10]): > 10 µM
drug sensitivity score (Caco-2 [11]): 0
drug sensitivity score (Calu-3 [12]): 0
drug sensitivity score (HepG2 [13]): 0
drug sensitivity score (U2OS [14]): 0
drug sensitivity score (Vero E6 [15]): 0

CN1[C@@H]2C[C@@H](O)C[C@H]1[C@@H]1O[C@@H]12 [scopine]
cell viability (Caco-2 [1]; 1 nM): 104%
cell viability (Caco-2 [1]; 10 nM): 93%
cell viability (Caco-2 [1]; 100 nM): 96.1%
cell viability (Caco-2 [1]; 1000 nM): 98.3%
cell viability (Caco-2 [1]; 10000 nM): 105%
cell viability (Calu-3 [2]; 1 nM): 102%
cell viability (Calu-3 [2]; 10 nM): 90.1%
cell viability (Calu-3 [2]; 100 nM): 98.8%
cell viability (Calu-3 [2]; 1000 nM): 103%
cell viability (Calu-3 [2]; 10000 nM): 103%
cell viability (HepG2 [3]; 1 nM): 97.2%
cell viability (HepG2 [3]; 10 nM): 99.7%
cell viability (HepG2 [3]; 100 nM): 96.7%
cell viability (HepG2 [3]; 1000 nM): 99.8%
cell viability (HepG2 [3]; 10000 nM): 97%
cell viability (U2OS [4]; 1 nM): 98.4%
cell viability (U2OS [4]; 10 nM): 93.4%
cell viability (U2OS [4]; 100 nM): 96.1%
cell viability (U2OS [4]; 1000 nM): 96%
cell viability (U2OS [4]; 10000 nM): 102%
cell viability (Vero E6 [5]; 1 nM): 104%
cell viability (Vero E6 [5]; 10 nM): 108%
cell viability (Vero E6 [5]; 100 nM): 106%
cell viability (Vero E6 [5]; 1000 nM): 106%
cell viability (Vero E6 [5]; 10000 nM): 98.8%
relative viability EC50 (Caco-2 [6]): > 10 µM
relative viability EC50 (Calu-3 [7]): > 10 µM
relative viability EC50 (HepG2 [8]): > 10 µM
relative viability EC50 (U2OS [9]): > 10 µM
relative viability EC50 (Vero E6 [10]): > 10 µM
drug sensitivity score (Caco-2 [11]): 0
drug sensitivity score (Calu-3 [12]): 0
drug sensitivity score (HepG2 [13]): 0
drug sensitivity score (U2OS [14]): 0
drug sensitivity score (Vero E6 [15]): 0
